# US20170152239A1, “BENZAMIDE AND HETEROBENZAMIDE COMPOUNDS” (PFIZER INC., priority 2012, published 2017)
# Target: WT EZH2 (EZH2 4 protein complex: EZH2, EED, SUZ12, RbAp48) (Homo sapiens, UniProt O75530+Q09028+Q15022+Q15910)
# Experiment: WT EZH2 nucleosome assay
# Assay type: biochemical
# Details: nucleosome assay, 5 nM EZH2 4-protein complex, 1.5 μM SAM; read-out: WT EZH2 IC50
# In short: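 IC50 values come from 4-parameter fits of 11-point dose responses, with % effect also given at 20 μM. Reactions held HeLa oligonucleosomes (25 μg/mL), rH1 (50 nM), 1.5 μM tritiated SAM and 5 nM enzyme complex at pH 8.5 Tris/DTT/Tween; stopped by TCA after 60 min, filtered and scintillation-counted.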
# Chain of WT EZH2 (EZH2 4 protein complex: EZH2, EED, SUZ12, RbAp48) (Q15910 whole entry): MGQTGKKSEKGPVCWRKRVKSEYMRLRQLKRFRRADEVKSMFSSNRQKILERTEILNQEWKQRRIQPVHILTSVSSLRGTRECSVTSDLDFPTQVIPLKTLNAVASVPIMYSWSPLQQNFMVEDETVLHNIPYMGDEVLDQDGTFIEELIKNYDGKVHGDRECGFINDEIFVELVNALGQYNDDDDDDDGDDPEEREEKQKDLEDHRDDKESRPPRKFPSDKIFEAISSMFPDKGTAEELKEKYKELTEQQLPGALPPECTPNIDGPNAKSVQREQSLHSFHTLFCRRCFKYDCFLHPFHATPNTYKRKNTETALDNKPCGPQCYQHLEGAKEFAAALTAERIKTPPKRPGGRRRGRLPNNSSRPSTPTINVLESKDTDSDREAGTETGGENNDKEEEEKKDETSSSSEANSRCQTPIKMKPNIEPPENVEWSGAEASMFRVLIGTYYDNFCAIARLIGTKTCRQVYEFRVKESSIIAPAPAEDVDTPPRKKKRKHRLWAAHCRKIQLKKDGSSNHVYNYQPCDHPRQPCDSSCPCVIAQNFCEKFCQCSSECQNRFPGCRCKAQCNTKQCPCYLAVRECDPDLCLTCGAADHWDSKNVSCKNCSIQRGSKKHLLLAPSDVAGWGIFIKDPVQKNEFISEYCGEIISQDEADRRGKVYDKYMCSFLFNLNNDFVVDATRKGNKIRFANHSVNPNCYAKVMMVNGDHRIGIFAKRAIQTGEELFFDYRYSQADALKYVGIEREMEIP
# Chain of WT EZH2 (EZH2 4 protein complex: EZH2, EED, SUZ12, RbAp48) (O75530 whole entry partner): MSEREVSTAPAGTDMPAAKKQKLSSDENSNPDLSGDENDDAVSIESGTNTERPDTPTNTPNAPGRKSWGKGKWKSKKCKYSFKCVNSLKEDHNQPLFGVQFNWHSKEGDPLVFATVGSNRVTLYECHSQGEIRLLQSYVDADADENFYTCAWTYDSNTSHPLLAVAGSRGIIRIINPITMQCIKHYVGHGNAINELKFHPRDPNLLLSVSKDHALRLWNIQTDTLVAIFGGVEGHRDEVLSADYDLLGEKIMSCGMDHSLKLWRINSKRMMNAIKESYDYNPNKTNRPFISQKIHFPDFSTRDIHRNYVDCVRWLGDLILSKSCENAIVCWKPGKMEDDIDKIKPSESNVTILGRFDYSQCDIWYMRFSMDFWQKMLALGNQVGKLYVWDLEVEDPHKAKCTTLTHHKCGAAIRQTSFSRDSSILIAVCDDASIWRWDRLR
# Chain of WT EZH2 (EZH2 4 protein complex: EZH2, EED, SUZ12, RbAp48) (Q15022 whole entry partner): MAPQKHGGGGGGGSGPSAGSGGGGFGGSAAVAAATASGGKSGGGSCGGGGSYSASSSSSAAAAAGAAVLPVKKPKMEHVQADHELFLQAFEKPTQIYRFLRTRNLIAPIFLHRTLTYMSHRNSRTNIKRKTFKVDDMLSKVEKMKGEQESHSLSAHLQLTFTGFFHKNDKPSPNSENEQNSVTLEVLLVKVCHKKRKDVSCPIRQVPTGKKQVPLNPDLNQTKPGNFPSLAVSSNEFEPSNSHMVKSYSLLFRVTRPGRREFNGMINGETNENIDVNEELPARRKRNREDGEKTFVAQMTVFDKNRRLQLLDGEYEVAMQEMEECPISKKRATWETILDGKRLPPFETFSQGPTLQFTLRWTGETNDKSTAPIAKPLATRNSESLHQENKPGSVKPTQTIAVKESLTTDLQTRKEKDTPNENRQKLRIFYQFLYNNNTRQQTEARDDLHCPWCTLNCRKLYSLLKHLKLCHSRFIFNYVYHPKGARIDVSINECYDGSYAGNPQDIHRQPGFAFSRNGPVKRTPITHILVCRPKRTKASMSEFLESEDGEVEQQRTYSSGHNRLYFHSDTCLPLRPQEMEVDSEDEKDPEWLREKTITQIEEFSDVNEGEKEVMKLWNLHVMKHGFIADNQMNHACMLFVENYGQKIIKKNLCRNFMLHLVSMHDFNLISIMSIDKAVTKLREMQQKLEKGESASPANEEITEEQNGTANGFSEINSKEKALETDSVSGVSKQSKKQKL
# Chain of WT EZH2 (EZH2 4 protein complex: EZH2, EED, SUZ12, RbAp48) (Q09028 whole entry partner): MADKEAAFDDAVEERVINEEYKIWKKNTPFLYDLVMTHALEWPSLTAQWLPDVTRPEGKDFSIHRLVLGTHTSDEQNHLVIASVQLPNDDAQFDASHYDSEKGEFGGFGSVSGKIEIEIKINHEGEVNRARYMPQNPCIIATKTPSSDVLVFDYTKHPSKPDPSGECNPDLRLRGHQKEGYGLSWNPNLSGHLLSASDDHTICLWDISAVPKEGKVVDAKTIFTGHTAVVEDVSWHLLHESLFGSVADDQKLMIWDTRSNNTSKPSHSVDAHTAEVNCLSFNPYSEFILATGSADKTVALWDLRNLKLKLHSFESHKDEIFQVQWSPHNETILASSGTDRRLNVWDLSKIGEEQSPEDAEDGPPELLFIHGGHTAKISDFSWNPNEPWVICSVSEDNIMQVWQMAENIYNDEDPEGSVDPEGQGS
row,Compound,IC50 [µM]
1,"COCC1CCN(c2ncnc(C(=O)NCc3c(C)cc(C)[nH]c3=O)c2C)C1 (centres unmarked) [Example 132, N-[(4,6-dimethyl-2-oxo-1,2-dihydropyridin-3-yl)methyl]-6-[3-(methoxymeth-yl)pyrrolidin-1-yl]-5-methylpyrimidine-4-carboxamide]",81.4
2,"Cc1cc(C)c(CNC(=O)c2ncnc(N3CCC[C@@H]3CO)c2C)c(=O)[nH]1 [Example 133, N-[(4,6-dimethyl-2-oxo-1,2-dihydropyridin-3-yl)methyl]-6-[(2R)-2-(hydroxymeth-yl)pyrrolidin-1-yl]-5-methylpyrimidine-4-carboxamide]",87.5
3,"CCOc1cccc(C(=O)NCc2c(C)cc(C)[nH]c2=O)c1F [Example 134, N-[(4,6-dimethyl-2-oxo-1,2-dihydropyridin-3-yl)methyl]-3-ethoxy-2-fluoro-benzamide]",127
4,"Cc1cc(C)c(CNC(=O)c2ncnc(N3CC[C@H]4C[C@H]43)c2C)c(=O)[nH]1 [Example 136, 6-[(1R,5S)-2-azabicyclo[3.1.0]hex-2-yl]-N-[(4,6-dimethyl-2-oxo-1,2-dihydropyridin-3-yl)methyl]-5-methyl-pyrimidine-4-carboxamide]",161
5,"CC(C)Oc1cccc(C(=O)NCc2ccc[nH]c2=O)c1Cl [Example 139, 2-chloro-3-isopropoxy-N-[(2-oxo-1,2-dihydropyridin-3-yl)methyl]benz-amide]",> 200
6,"COc1ccc(OC)c(C(=O)NCc2c(C)cc(C)[nH]c2=O)c1OC [Example 140, N-[(4,6-dimethyl-2-oxo-1,2-dihydropyridin-3-yl)methyl]-2,3,6-trimethoxy-benzamide]",> 200
7,"Cc1ccc(CNC(=O)c2nc(C3CC3)nc(-c3ccnn3C)c2C)c(=O)[nH]1 [Example 141, 2-cyclopropyl-5-methyl-N-[(6-methyl-2-oxo-1,2-dihydropyridin-3-yl)methyl]-6-(1-methyl-1H-pyrazol-5-yl)pyrimidine-4-carboxamide]",> 200
8,"Cc1cc(C(F)(F)F)[nH]c(=O)c1CNC(=O)c1cc(Cl)cc(-c2ccnn2C)c1C [Example 142, 5-chloro-2-methyl-N-{[4-methyl-2-oxo-6-(trifluoromethyl)-1,2-dihydropyridin-3-yl]methyl}-3-(1-methyl-1H-pyrazol-5-yl)benzamide]",> 200
9,"CC(=O)N[C@H]1CCN(c2ncnc(C(=O)NCc3c(C)cc(C)[nH]c3=O)c2C)C1 [Example 143, 6-[(3S)-3-azetamido-pyrrolidin-1-yl]-N-[(4,6-dimethyl-2-oxo-1,2-dihydropyridin-3-yl)methyl]-5-methylpyrimidine-4-carboxamide]",> 200
10,"Cc1cc(C)c(CNC(=O)c2ncnc(N3CCC[C@@H]3c3ccccn3)c2C)c(=O)[nH]1 [Example 144, N-[(4,6-dimethyl-2-oxo-1,2-dihydropyridin-3-yl)methyl]-5-methyl-6-[(2R)-2-pyridin-2-ylpyrrolidin-1-yl]pyrimidine-4-carboxamide]",> 200
11,"Cc1cc(C)c(CNC(=O)c2ncnc(N3CCC[C@@H]3C(N)=O)c2C)c(=O)[nH]1 [Example 145, 6-[(2R)-2-carbamoyl-pyrrolidin-1-yl]-N-[(4,6-dimethyl-2-oxo-1,2-dihydropyridin-3-yl)methyl]-5-methylpyrimi-dine-4-carboxamide]",> 200
12,"Cc1noc([C@H]2CCCN2c2ncnc(C(=O)NCc3c(C)cc(C)[nH]c3=O)c2C)n1 [Example 146, N-[(4,6-dimethyl-2-oxo-1,2-dihydropyridin-3-yl)methyl]-5-methyl-6-[(2R)-2-(3-methyl-1,2,4-oxadiazol-5-yl)pyrrolidin-1-yl]pyrimidine-4-carboxamide]",> 200
13,"CCn1ncc(C)c1-c1cccc(C(=O)NCc2c(C)c(Cl)c(C)[nH]c2=O)c1C [Example 148, N-[(5-chloro-4,6-dimethyl-2-oxo-1,2-dihydropyridin-3-yl)methyl]-3-(1-ethyl-4-methyl-1H-pyrazol-5-yl)-2-methyl-benzamide]",> 200

# These reach a lower IC50. Values come first.
row,IC50 [µM],Compound
1,77.8,"COC[C@H]1CCCN1c1ncnc(C(=O)NCc2c(C)cc(C)[nH]c2=O)c1C [Example 131, N-[(4,6-dimethyl-2-oxo-1,2-dihydropyridin-3-yl)methyl]-6-[(2R)-2-(methoxymeth-yl)pyrrolidin-1-yl]-5-methylpyrimidine-4-carboxamide]"
2,67.9,"Cc1cc(C)c(CNC(=O)c2cccc(OC(C)C)c2F)c(=O)[nH]1 [Example 130, N-[(4,6-dimethyl-2-oxo-1,2-dihydropyridin-3-yl)methyl]-2-fluoro-3-isopropoxy-benzamide]"
3,50.7,"Cc1cc(C)c(CNC(=O)c2ncnc(N3CCCC3)c2C)c(=O)[nH]1 [Example 125, N-[(4,6-dimethyl-2-oxo-1,2-dihydropyridin-3-yl)methyl]-5-methyl-6-pyrrolidin-1-ylpyrimidine-4-carboxamide]"
4,49.3,"Cc1cc(C)c(CNC(=O)c2ncnc(-c3ccnn3C)c2C)c(=O)[nH]1 [Example 124, N-[(4,6-dimethyl-2-oxo-1,2-dihydropyridin-3-yl)methyl]-5-methyl-6-(1-methyl-1H-pyrazol-5-yl)pyrimidine-4-carboxamide]"
5,44.4,"Cc1cc(C)c(CNC(=O)c2ncnc(N3CCOCC3)c2C)c(=O)[nH]1 [Example 123, N-[(4,6-dimethyl-2-oxo-1,2-dihydropyridin-3-yl)methyl]-5-methyl-6-morpholin-4-ylpyrimidine-4-carboxamide]"
6,43.6,"Cc1cc(C)c(CNC(=O)c2ncnc(N3CCCC3C3CC3)c2C)c(=O)[nH]1 (centres unmarked) [Example 122, 6-(2-cyclopropyl-pyrrolidin-1-yl)-N-[(4,6-dimethyl-2-oxo-1,2-dihydropyridin-3-yl)methyl]-5-methylpyrimidine-4-carboxamide]"
7,42.1,"Cc1cc(C(F)(F)F)c(CNC(=O)c2cccc(-c3ccnn3C)c2Cl)c(=O)[nH]1 [Example 121, 2-chloro-N-{[6-methyl-2-oxo-4-(trifluoromethyl)-1,2-dihydropyridin-3-yl]methyl}-3-(1-methyl-1H-pyrazol-5-yl)benzamide]"
8,40.5,"Cc1cc(C)c(CNC(=O)c2ncnc(N3CC[C@@H](C)C3)c2C)c(=O)[nH]1 [Example 120, N-[(4,6-dimethyl-2-oxo-1,2-dihydropyridin-3-yl)methyl]-5-methyl-6-[(3R)-3-methylpyrrolidin-1-yl]pyrimidine-4-carboxamide]"
9,31.8,"CCCc1cc(C)[nH]c(=O)c1CNC(=O)c1nc(C2CC2)nc(-c2ccnn2C)c1C [Example 118, 2-cyclopropyl-5-methyl-N-[(6-methyl-2-oxo-4-propyl-1,2-dihydropyridin-3-yl)methyl]-6-(1-methyl-1H-pyrazol-5-yl)pyrimidine-4-carboxamide]"
10,31.1,"Cc1cc(C)c(CNC(=O)c2nc(OCCN3CC(F)(F)C3)nc(-c3ccnn3C)c2C)c(=O)[nH]1 [Example 117, 2-[2-(3,3-difluoroazetidin-1-yl)ethoxy]-N-[(4,6-dimethyl-2-oxo-1,2-dihydropyridin-3-yl)methyl]-5-methyl-6-(1-methyl-1H-pyrazol-5-yl)pyrimidine-4-carboxamide]"
11,29.2,"Cc1cc(C)c(CNC(=O)c2ncnc(N3CCC[C@@H]3C#N)c2C)c(=O)[nH]1 [Example 116, 6-[(2R)-2-cyanopyrrolidin-1-yl]-N-[(4,6-dimethyl-2-oxo-1,2-dihydropyridin-3-yl)methyl]-5-methyl-pyrimidine-4-carboxamide]"
12,28.7,"Cc1cc(C)c(CNC(=O)c2ncnc(-c3ccnn3C)c2Cl)c(=O)[nH]1 [Example 115, 5-chloro-N-[(4,6-dimethyl-2-oxo-1,2-dihydropyridin-3-yl)methyl]-6-(1-methyl-1H-pyrazol-5-yl)pyrimidine-4-carboxamide]"
13,28.4,"Cc1cc(C)c(CNC(=O)c2nc(O[C@H]3CCOC3)nc(-c3ccnn3C)c2C)c(=O)[nH]1 [Example 114, N-[(4,6-dimethyl-2-oxo-1,2-dihydropyridin-3-yl)methyl]-5-methyl-6-(1-methyl-1H-pyrazol-5-yl)-2-[(3S)-tetrahydro-furan-3-yloxy]pyrimidine-4-carboxamide]"
